From ChEMBL document CHEMBL1201862, “PubChem BioAssay data set” (2004)
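Method: 48-hour compound exposure of cells in 96-well plates, five concentrations, linear interpolation of endpoints. The concentration for 50% growth inhibition is given as GI50.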 Activity calls are given as the source filed them. No stated cut-off is given here; in the data, active = GI50 up to about 1.1 µM and inactive = higher.

What was measured:
Assay in all cases: DTP human tumour cell line panel, 48 h
[1] = test system: HOP-62
[2] = test system: CCRF-CEM
[3] = test system: MCF7
[4] = test system: OVCAR-3
[5] = test system: LOX IMVI
[6] = test system: A498
[7] = test system: MDA-MB-231
[8] = test system: IGROV-1
[9] = test system: DU-145
[10] = test system: EKVX
[11] = test system: SF-268
[12] = test system: HT-29
[13] = test system: HCT-116
[14] = test system: PC-3
[15] = test system: RPMI-8226
[16] = test system: NCI/ADR-RES
[17] = test system: SK-MEL-28
[18] = test system: HOP-92
[19] = test system: SK-MEL-2

Structure (SMILES) | GI50 [1] | GI50 [2] | GI50 [3] | GI50 [4] | GI50 [5] | GI50 [6] | GI50 [7] | GI50 [8] | GI50 [9] | GI50 [10] | GI50 [11] | GI50 [12] | GI50 [13] | GI50 [14] | GI50 [15] | GI50 [16] | GI50 [17] | GI50 [18] | GI50 [19]
CC(C)C1=C(Cc2ccccc2)C(=O)O/C1=C\c1cc(Cl)c(O)c(Cl)c1 | 20.2 µM (inactive) | 16 µM (inactive) | 27.9 µM (inactive) | 14.2 µM (inactive) | 17.4 µM (inactive) | 23.7 µM (inactive) | 16.9 µM (inactive) | 19.4 µM (inactive) | 16 µM (inactive) | 26.1 µM (inactive) | 22.6 µM (inactive) | 16.9 µM (inactive) | 18.2 µM (inactive) | 16.9 µM (inactive) | 17.3 µM (inactive) | 23.3 µM (inactive) | 18.5 µM (inactive) |  | 
COC1(OC)CC(CO)(CNc2nc(N)nc(Cl)c2C=O)C1 | 42.5 µM (inactive) | 27.8 µM (inactive) | 57.7 µM (inactive) | 39.9 µM (inactive) | 18.5 µM (inactive) | > 100 µM (inactive) | 20.8 µM (inactive) | 20.7 µM (inactive) | 95.9 µM (inactive) | 22.8 µM (inactive) | 44.2 µM (inactive) | 55.6 µM (inactive) | 39.3 µM (inactive) | 24 µM (inactive) | > 100 µM (inactive) | 31 µM (inactive) | 50 µM (inactive) | 14.6 µM (inactive) | 
CC(C)=CCC[C@]1(C)CC[C@]2(C)C3CCC(=C(C)C)[C@@H](CCCO)[C@]3(C)CC[C@@]2(C)C1 (stereo not given in full) | 88.5 µM (inactive) | 36.9 µM (inactive) | 24 µM (inactive) | 47.1 µM (inactive) |  | > 100 µM (inactive) | 29.8 µM (inactive) | 18.8 µM (inactive) | 34 µM (inactive) | 46.5 µM (inactive) | 82 µM (inactive) | 40.2 µM (inactive) | 36.7 µM (inactive) | 35.1 µM (inactive) | 26.5 µM (inactive) | > 100 µM (inactive) | > 100 µM (inactive) |  | 18.8 µM (inactive)
CC(=O)OC12c3ccccc3C(c3ccccc31)C1C(=O)N(Nc3ccccc3)C(=O)C12 (stereo not given) | > 100 µM (inactive) | > 100 µM (inactive) | > 100 µM (inactive) | > 100 µM (inactive) | > 100 µM (inactive) | > 100 µM (inactive) | > 100 µM (inactive) | > 100 µM (inactive) | > 100 µM (inactive) | > 100 µM (inactive) | > 100 µM (inactive) | > 100 µM (inactive) | > 100 µM (inactive) | > 100 µM (inactive) | > 100 µM (inactive) | > 100 µM (inactive) | > 100 µM (inactive) |  | 
Clc1ccc(CCN[C@H]2CCCC[C@H]2N2CCCC2)cc1Cl | 20 µM (inactive) | 30.7 µM (inactive) | 16.1 µM (inactive) | 19.6 µM (inactive) | 16 µM (inactive) | 15.8 µM (inactive) | 25.6 µM (inactive) | 16.8 µM (inactive) | 21.8 µM (inactive) | 57.8 µM (inactive) | 32.2 µM (inactive) | 9.1 µM (inactive) | 19.5 µM (inactive) | 27.9 µM (inactive) | 25.2 µM (inactive) | 21.4 µM (inactive) | 28.9 µM (inactive) |  | 20.8 µM (inactive)
O=c1ccn(C/C=C/c2ccccc2)c(=S)n1C/C=C/c1ccccc1 | > 100 µM (inactive) | 18.4 µM (inactive) | 18.3 µM (inactive) | > 100 µM (inactive) | 28.6 µM (inactive) | > 100 µM (inactive) | > 100 µM (inactive) | > 100 µM (inactive) | > 100 µM (inactive) | 66.8 µM (inactive) | > 100 µM (inactive) | > 100 µM (inactive) | 44.6 µM (inactive) | 56.4 µM (inactive) |  | > 100 µM (inactive) | > 100 µM (inactive) | > 100 µM (inactive) | > 100 µM (inactive)
Cc1c(C)c2c(c(N)c1C#N)C(=O)N(CCc1ccccc1)C2=O |  | > 100 µM (inactive) | > 100 µM (inactive) | > 100 µM (inactive) | > 100 µM (inactive) | > 100 µM (inactive) | > 100 µM (inactive) | > 100 µM (inactive) | > 100 µM (inactive) | > 100 µM (inactive) | > 100 µM (inactive) |  | > 100 µM (inactive) | > 100 µM (inactive) | > 100 µM (inactive) | > 100 µM (inactive) | > 100 µM (inactive) | > 100 µM (inactive) | > 100 µM (inactive)
C=C(CO[Si](C)(C)C(C)(C)C)C(C)=O | > 100 µM (inactive) | 0.678 µM (active) | 23.3 µM (inactive) | 20.4 µM (inactive) | 4.94 µM (inactive) | > 100 µM (inactive) | 20.3 µM (inactive) | 25.5 µM (inactive) | > 100 µM (inactive) | > 100 µM (inactive) | 31.4 µM (inactive) | 19.5 µM (inactive) | 13.3 µM (inactive) | 26.9 µM (inactive) | 4.88 µM (inactive) | 26.9 µM (inactive) | 17.8 µM (inactive) |  | 20.5 µM (inactive)
CC(C)C1OC23CCCCC2C(C#N)(C#N)C1(C#N)C(=N)O3 (stereo not given) |  | 5.56 µM (inactive) | 12.1 µM (inactive) | 22.7 µM (inactive) | 20.1 µM (inactive) | 25.3 µM (inactive) | 19.6 µM (inactive) | > 10 µM (inactive) | 26.3 µM (inactive) | 27.5 µM (inactive) | 19.2 µM (inactive) | 14.5 µM (inactive) | 16 µM (inactive) | 30.4 µM (inactive) |  | 34.8 µM (inactive) | 27.4 µM (inactive) | 16.5 µM (inactive) | 26 µM (inactive)
O=C(CCN1CCCC1)c1ccc(Oc2ccc(F)cc2)cc1 | > 100 µM (inactive) | 26.5 µM (inactive) | 15.6 µM (inactive) | 30.9 µM (inactive) | 30.5 µM (inactive) |  | > 100 µM (inactive) | 33 µM (inactive) | 53.5 µM (inactive) | 93.3 µM (inactive) | 87.3 µM (inactive) | 32.5 µM (inactive) | 60.8 µM (inactive) | 38.5 µM (inactive) |  | > 100 µM (inactive) | > 100 µM (inactive) | 15 µM (inactive) | > 100 µM (inactive)
O=C(O)CNc1ccc(Cl)c(Cl)c1 | 24 µM (inactive) | 31.6 µM (inactive) | 13.9 µM (inactive) | 25.9 µM (inactive) | 35.2 µM (inactive) | 30.4 µM (inactive) | 45.3 µM (inactive) | 1.1 µM (active) | 29.4 µM (inactive) | 23.1 µM (inactive) | 28.9 µM (inactive) | 40.6 µM (inactive) | 19.2 µM (inactive) | 24.6 µM (inactive) | 21.9 µM (inactive) | 28.6 µM (inactive) |  | 15.8 µM (inactive) | 
COc1cc2c(cc1OC)C13CCN4CC5=CCOC6CC(=O)N2C1C6C5CC43O (stereo not given) |  | > 100 µM (inactive) | > 100 µM (inactive) | > 100 µM (inactive) | > 100 µM (inactive) | > 100 µM (inactive) | > 100 µM (inactive) | > 100 µM (inactive) | > 100 µM (inactive) | > 100 µM (inactive) | > 100 µM (inactive) | > 100 µM (inactive) | > 100 µM (inactive) | > 100 µM (inactive) | > 100 µM (inactive) | > 100 µM (inactive) | > 100 µM (inactive) | > 100 µM (inactive) | > 100 µM (inactive)
O=C1/C(=C2\SCC(=O)N2c2ccccc2)SC(=S)N1c1ccccc1 |  | 37.2 µM (inactive) | 36.8 µM (inactive) | 27.8 µM (inactive) | 32.7 µM (inactive) | 40.4 µM (inactive) | 20.6 µM (inactive) | 17.1 µM (inactive) | 34 µM (inactive) | 30.3 µM (inactive) | 41.8 µM (inactive) | 56.1 µM (inactive) | 46.3 µM (inactive) | 28.6 µM (inactive) | 36.3 µM (inactive) | 27 µM (inactive) | 35.9 µM (inactive) | 23.3 µM (inactive) | 27.3 µM (inactive)
CCOC(=O)Nn1c(C)nnc1-c1ccccc1 |  | > 100 µM (inactive) | > 100 µM (inactive) | > 100 µM (inactive) | > 100 µM (inactive) | > 100 µM (inactive) | > 100 µM (inactive) | > 100 µM (inactive) | > 100 µM (inactive) | > 100 µM (inactive) | > 100 µM (inactive) | > 100 µM (inactive) | > 100 µM (inactive) | > 100 µM (inactive) | > 100 µM (inactive) | > 100 µM (inactive) |  | > 100 µM (inactive) | > 100 µM (inactive)
CC(C)(C)NC1=NC(C(F)(F)F)(C(F)(F)F)NC(=O)N1 | > 100 µM (inactive) | 31.2 µM (inactive) | 37.8 µM (inactive) | 77.4 µM (inactive) | 53 µM (inactive) |  | 77.1 µM (inactive) | 64.1 µM (inactive) | > 100 µM (inactive) | 84.1 µM (inactive) | > 100 µM (inactive) | 36.9 µM (inactive) | 38.9 µM (inactive) | 34.8 µM (inactive) | 36.9 µM (inactive) | 61 µM (inactive) | 32.7 µM (inactive) | 20 µM (inactive) | 65.2 µM (inactive)
CC(C)OC(=O)Nc1cccc(Cl)c1 [CHLORPROPHAM] | > 100 µM (inactive) | > 100 µM (inactive) | > 100 µM (inactive) | > 100 µM (inactive) | > 100 µM (inactive) |  | > 100 µM (inactive) | > 100 µM (inactive) | > 100 µM (inactive) | 63.1 µM (inactive) | > 100 µM (inactive) | 87.7 µM (inactive) | > 100 µM (inactive) | 94.4 µM (inactive) | > 100 µM (inactive) | 91.4 µM (inactive) | > 100 µM (inactive) | > 100 µM (inactive) | > 100 µM (inactive)
